Data set [1] relates to class IIa HDACs (HDAC4, HDAC5, HDAC7, HDAC9). Briefly: HDAC inhibition assay, class IIa HDAC enzymes. In kind it is biochemical, human. On the procedure: (§1) The inventive compounds may be tested in any assay for HDAC inhibitor activity. In certain embodiments, the assay for determining the inhibitory effect of an inventive compound on an HDAC protein comprising: incubating the HDAC protein with a substrate of formula: […]
(§2) in the presence of an inventive compound; and determining the activity of the HDAC protein by monitoring the release of 7-amino-4-methylcoumarin after cleavage by trypsin.
(§3) In certain embodiments, the assay is performed in water. In other embodiments, the assay is performed in an organic solvent. In still other embodiments, the assay in performed in a buffer. In certain embodiments, the buffer is an assay buffer. In other embodiments, the assay buffer comprises HEPES, KCl, Tween-20, BSA, and TCEP. In further embodiments, the assay buffer is […] HEPES, 100 mM KCl, 0.001% Tween-20, 0.05% BSA, 200 µM TCEP, pH 7.4. In certain embodiments, the assay is performed at approximately pH 5.0-6.0. In certain embodiments, the assay is performed at approximately pH 5.0-9.0. In certain embodiments, the assay is performed at a pH optimum for an HDAC enzyme to function.

The conditions of data set [2]: difference versus unsubstituted cinnamic hydroxamic acid; Dessolin et al. 1970; cited from earlier work.
The subject of another data set is HDAC1-3. Kind of data set: HDAC inhibition assay, HDAC1-3. It counts as biochemical, human. As to conditions: fluorinated MAZ1702 versus MAZ1704. On the procedure: as §1, §2, §3

`O=C(NO)C(F)=Cc1ccccc1` [α-fluoro cinnamic hydroxamic acid]: the “fold increase in activity for class IIa enzymes” value in data set [1] (direct comparison with cinnamic hydroxamic acid) was 5-10 fold. Besides, the “pKa, units lower than unsubstituted cinammic hydroxamic acid” value in data set [2] is “approximately 0.9 units”.
In the case of `O=C(NO)/C(F)=C/c1ccccc1` [MAZ1702], the “fold increase in activity for HDAC1-3” value with HDAC1-3 is 1-1.4 fold. Besides, the “affinity for class IIa HDAC enzymes compared to MAZ1704” value in data set [1] (FIG. 2 legend, in words) was “significantly increased affinity”. In addition, in data set [1] (fluorinated MAZ1702 versus MAZ1704 (FIG. 2)), the “binds fold better to class IIa enzymes” value is 3.5-5 fold.

(Values after US20130040998A1, “FLUORINATED HDAC INHIBITORS AND USES THEREOF” (Dana-Farber Cancer Institute, Inc., priority 2010, published 2013).)
